Each structure is given as a SMILES string. In brackets after ≈: the same amount, converted by molar mass.

The conditions of data set [1]: 1.0% DMSO, 24-hour incubation at ambient temperature, maximum theoretical 100 μM; for pH 2 solubility: 0.1N HCl, first value of the cell; for pH 7 solubility: 1×PBS buffer (pH 7.4), second value of the cell.
Data set [2] in a line: Solubility in simulated intestinal fluids (FaSSIF/FeSSIF). The settings on record: 25 °C, thermodynamic from solid.
Where [3] appears, read: fasted state simulated intestinal fluid (FaSSIF), fassif.
The mark [4] stands for this setting: fed state simulated intestinal fluid (FeSSIF), fessif.

One may read the solubility as the dissolved amount per volume that the medium holds. The low end stands for a poorly soluble substance, the high end for a readily soluble substance. On to `CC(C)(C#Cc1ccc(-c2ccc(Cl)c3c(N(C(=O)OC(CC(=O)O)CC(=O)O)S(C)(=O)=O)nn(CC(F)(F)F)c23)c([C@H](Cc2cc(F)cc(F)c2)NC(=O)Cn2nc(C(F)(F)F)c3c2C(F)(F)[C@@H]2C[C@H]32)n1)S(C)(=O)=O` [Compound 125, 3-(((4-chloro-7-(2-((S)-1-(2-((3bS,4aR)-5,5-difluoro-3-(trifluoromethyl)-3b,4,4a,5-tetrahydro-1H-cyclopropa[3,4]cyclopenta[1,2-c]pyrazol-1-yl)acetamido)-2-(3,5-difluorophenyl)ethyl)-6-(3-methyl-3-(methylsulfonyl)but-1-yn-1-yl)pyridin-3-yl)-1-(2,2,2-trifluoroethyl)-1H-indazol-3-yl)(methylsulfonyl)carbamoyl)oxy)pentanedioic acid], for which, in data set [1], the “pH 2 solubility” value amounted to 14 μM and the “pH 7 solubility” value was 68 μM. This molecule came in with a solubility in data set [2] (setting [3]) of 617 µg/mL (≈ 540 µM). This molecule returned a solubility in data set [2] (setting [4]) of 42 µg/mL (≈ 36.8 µM).

For the molecule `CC(C)(C#Cc1ccc(-c2ccc(Cl)c3c(N(C(=O)OCC(=O)OCOP(=O)(O)O)S(C)(=O)=O)nn(CC(F)(F)F)c23)c([C@H](Cc2cc(F)cc(F)c2)NC(=O)Cn2nc(C(F)(F)F)c3c2C(F)(F)[C@@H]2C[C@H]32)n1)S(C)(=O)=O` [Compound 94, (phosphonooxy)methyl 2-(((4-chloro-7-(2-((S)-1-(2-((3bS,4aR)-5,5-difluoro-3-(trifluoromethyl)-3b,4,4a,5-tetrahydro-1H-cyclopropa[3,4]cyclopenta[1,2-c]pyrazol-1-yl)acetamido)-2-(3,5-difluorophenyl)ethyl)-6-(3-methyl-3-(methylsulfonyl)but-1-yn-1-yl)pyridin-3-yl)-1-(2,2,2-trifluoroethyl)-1H-indazol-3-yl)(methylsulfonyl)carbamoyl)oxy)acetate], in data set [1], the “pH 2 solubility” value was <1/1 μM. Further, the “pH 7 solubility” value in data set [1] is on record as <1/1 μM. The solubility in data set [2] (setting [3]) is 481 µg/mL (≈ 408 µM); in data set [2] (setting [4]), 189 µg/mL (≈ 160 µM).

On to `CC(C)(C#Cc1ccc(-c2ccc(Cl)c3c(N(C(=O)NC(C(=O)O)C(=O)O)S(C)(=O)=O)nn(CC(F)(F)F)c23)c([C@H](Cc2cc(F)cc(F)c2)NC(=O)Cn2nc(C(F)(F)F)c3c2C(F)(F)[C@@H]2C[C@H]32)n1)S(C)(=O)=O` [Compound 53, 2-(3-(4-chloro-7-(2-((S)-1-(2-((3bS,4aR)-5,5-difluoro-3-(trifluoromethyl)-3b,4,4a,5-tetrahydro-1H-cyclopropa[3,4]cyclopenta[1,2-c]pyrazol-1-yl)acetamido)-2-(3,5-difluorophenyl)ethyl)-6-(3-methyl-3-(methylsulfonyl)but-1-yn-1-yl)pyridin-3-yl)-1-(2,2,2-trifluoroethyl)-1H-indazol-3-yl)-3-(methylsulfonyl)ureido)malonic acid], for which the “pH 2 solubility” value in data set [1] amounted to 1 μM. Moreover, the “pH 7 solubility” value in data set [1] worked out at 62 μM. For the same molecule, the figures for the solubility in data set [2] (setting [3]) and in data set [2] (setting [4]) were 758 µg/mL (≈ 681 µM) and 370 µg/mL (≈ 332 µM), respectively.

Take `CC(C)(C#Cc1ccc(-c2ccc(Cl)c3c(N(C(=O)N[C@@H](CCC(=O)O)C(=O)O)S(C)(=O)=O)nn(CC(F)(F)F)c23)c([C@H](Cc2cc(F)cc(F)c2)NC(=O)Cn2nc(C(F)(F)F)c3c2C(F)(F)[C@@H]2C[C@H]32)n1)S(C)(=O)=O` [Compound 68, ((4-chloro-7-(2-((S)-1-(2-((3bS,4aR)-5,5-difluoro-3-(trifluoromethyl)-3b,4,4a,5-tetrahydro-1H-cyclopropa[3,4]cyclopenta[1,2-c]pyrazol-1-yl)acetamido)-2-(3,5-difluorophenyl)ethyl)-6-(3-methyl-3-(methylsulfonyl)but-1-yn-1-yl)pyridin-3-yl)-1-(2,2,2-trifluoroethyl)-1H-indazol-3-yl)(methylsulfonyl)carbamoyl)-L-glutamic acid]: in data set [1], the “pH 2 solubility” value was found to be 1 μM. For the same molecule, in data set [1], the “pH 7 solubility” value is on record as 18 μM. Also, the solubility is 700 µg/mL (≈ 613 µM) in data set [2] (setting [3]) and 246 µg/mL (≈ 216 µM) in data set [2] (setting [4]).

As to `CC(C)(C#Cc1ccc(-c2ccc(Cl)c3c(N(C(=O)N[C@@H](COP(=O)(O)O)C(=O)O)S(C)(=O)=O)nn(CC(F)(F)F)c23)c([C@H](Cc2cc(F)cc(F)c2)NC(=O)Cn2nc(C(F)(F)F)c3c2C(F)(F)[C@@H]2C[C@H]32)n1)S(C)(=O)=O` [Compound 59, N-((4-chloro-7-(2-((S)-1-(2-((3bS,4aR)-5,5-difluoro-3-(trifluoromethyl)-3b,4,4a,5-tetrahydro-1H-cyclopropa[3,4]cyclopenta[1,2-c]pyrazol-1-yl)acetamido)-2-(3,5-difluorophenyl)ethyl)-6-(3-methyl-3-(methylsulfonyl)but-1-yn-1-yl)pyridin-3-yl)-1-(2,2,2-trifluoroethyl)-1H-indazol-3-yl)(methylsulfonyl)carbamoyl)-O-phosphono-L-serine], in data set [1], the “pH 2 solubility” value is recorded as 2 μM and the “pH 7 solubility” value came out at 21 μM. This molecule also showed a solubility in data set [2] (setting [3]) of 798 µg/mL (≈ 677 µM). For the same molecule, the concentration in solution in data set [2] (setting [4]) (solubility) came to 819 µg/mL (≈ 694 µM).

In the case of `CN(CCC(=O)O)C(=O)N(c1nn(CC(F)(F)F)c2c(-c3ccc(C#CC(C)(C)S(C)(=O)=O)nc3[C@H](Cc3cc(F)cc(F)c3)NC(=O)Cn3nc(C(F)(F)F)c4c3C(F)(F)[C@@H]3C[C@H]43)ccc(Cl)c12)S(C)(=O)=O` [Compound 45, 3-(3-(4-chloro-7-(2-((S)-1-(2-((3bS,4aR)-5,5-difluoro-3-(trifluoromethyl)-3b,4,4a,5-tetrahydro-1H-cyclopropa[3,4]cyclopenta[1,2-c]pyrazol-1-yl)acetamido)-2-(3,5-difluorophenyl)ethyl)-6-(3-methyl-3-(methylsulfonyl)but-1-yn-1-yl)pyridin-3-yl)-1-(2,2,2-trifluoroethyl)-1H-indazol-3-yl)-1-methyl-3-(methylsulfonyl)ureido)propanoic acid], in data set [1], the “pH 2 solubility” value amounted to 1 μM and the “pH 7 solubility” value worked out at 20 μM. In data set [2] (setting [3]), this molecule yielded a solubility of 14 µg/mL (≈ 12.8 µM). In data set [2] (setting [4]), this molecule displayed a solubility of 1 µg/mL (≈ 0.911 µM).

Turning to `CC(C)(C#Cc1ccc(-c2ccc(Cl)c3c(N(COC(=O)CN)S(C)(=O)=O)nn(CC(F)(F)F)c23)c([C@H](Cc2cc(F)cc(F)c2)NC(=O)Cn2nc(C(F)(F)F)c3c2C(F)(F)[C@@H]2C[C@H]32)n1)S(C)(=O)=O` [Compound 29, (N-(4-chloro-7-(2-((S)-1-(2-((3bS,4aR)-5,5-difluoro-3-(trifluoromethyl)-3b,4,4a,5-tetrahydro-1H-cyclopropa[3,4]cyclopenta[1,2-c]pyrazol-1-yl)acetamido)-2-(3,5-difluorophenyl)ethyl)-6-(3-methyl-3-(methylsulfonyl)but-1-yn-1-yl)pyridin-3-yl)-1-(2,2,2-trifluoroethyl)-1H-indazol-3-yl)methylsulfonamido)methyl glycinate], in data set [1], the “pH 2 solubility” value came out at 54 μM. Also, the “pH 7 solubility” value in data set [1] is given as 4 μM. The values for the solubility in data set [2] (setting [3]) and in data set [2] (setting [4]) were 6 µg/mL (≈ 5.69 µM) and 120 µg/mL (≈ 114 µM), respectively.

Consider `CC(C)(C#Cc1ccc(-c2ccc(Cl)c3c(N(C(=O)C(=O)O)S(C)(=O)=O)nn(CC(F)(F)F)c23)c([C@H](Cc2cc(F)cc(F)c2)NC(=O)Cn2nc(C(F)(F)F)c3c2C(F)(F)[C@@H]2C[C@H]32)n1)S(C)(=O)=O` [Compound 16], for which, in data set [1], the “pH 2 solubility” value was determined as 1 μM and the “pH 7 solubility” value is recorded as 92 μM. Besides, the solubility in data set [2] (setting [3]) is 710 µg/mL (≈ 682 µM). The molecule further gave a solubility in data set [2] (setting [4]) of 497 µg/mL (≈ 478 µM).

Regarding `CC(C)(C#Cc1ccc(-c2ccc(Cl)c3c(N(C(=O)OCOP(=O)(O)O)S(C)(=O)=O)nn(CC(F)(F)F)c23)c([C@H](Cc2cc(F)cc(F)c2)NC(=O)Cn2nc(C(F)(F)F)c3c2C(F)(F)[C@@H]2C[C@H]32)n1)S(C)(=O)=O` [Compound 90, (phosphonooxy)methyl (4-chloro-7-(2-((S)-1-(2-((3bS,4aR)-5,5-difluoro-3-(trifluoromethyl)-3b,4,4a,5-tetrahydro-1H-cyclopropa[3,4]cyclopenta[1,2-c]pyrazol-1-yl)acetamido)-2-(3,5-difluorophenyl)ethyl)-6-(3-methyl-3-(methylsulfonyl)but-1-yn-1-yl)pyridin-3-yl)-1-(2,2,2-trifluoroethyl)-1H-indazol-3-yl)(methylsulfonyl)carbamate], in data set [1], the “pH 2 solubility” value stood at 1 μM and the “pH 7 solubility” value is recorded as 48 μM. For the same molecule, in data set [2] (setting [3]), the concentration in solution (solubility) was 2 µg/mL (≈ 1.78 µM). In data set [2] (setting [4]), this molecule registered a solubility of 3 µg/mL (≈ 2.67 µM).

Regarding `CC(C)(C#Cc1ccc(-c2ccc(Cl)c3c(N(C(=O)N[C@@H](CC(=O)O)C(=O)O)S(C)(=O)=O)nn(CC(F)(F)F)c23)c([C@H](Cc2cc(F)cc(F)c2)NC(=O)Cn2nc(C(F)(F)F)c3c2C(F)(F)[C@@H]2C[C@H]32)n1)S(C)(=O)=O` [Compound 69, ((4-chloro-7-(2-((S)-1-(2-((3bS,4aR)-5,5-difluoro-3-(trifluoromethyl)-3b,4,4a,5-tetrahydro-1H-cyclopropa[3,4]cyclopenta[1,2-c]pyrazol-1-yl)acetamido)-2-(3,5-difluorophenyl)ethyl)-6-(3-methyl-3-(methylsulfonyl)but-1-yn-1-yl)pyridin-3-yl)-1-(2,2,2-trifluoroethyl)-1H-indazol-3-yl)(methylsulfonyl)carbamoyl)-L-aspartic acid], in data set [1], the “pH 2 solubility” value came to 1 μM and the “pH 7 solubility” value was 81 μM. For the same molecule, the concentration in solution in data set [2] (setting [3]) (solubility) was 1580 µg/mL (≈ 1400 µM). In data set [2] (setting [4]), this molecule had a solubility of 247 µg/mL (≈ 219 µM).

On to `CN(C(=O)N(c1nn(CC(F)(F)F)c2c(-c3ccc(C#CC(C)(C)S(C)(=O)=O)nc3[C@H](Cc3cc(F)cc(F)c3)NC(=O)Cn3nc(C(F)(F)F)c4c3C(F)(F)[C@@H]3C[C@H]43)ccc(Cl)c12)S(C)(=O)=O)[C@@H](CCC(=O)O)C(=O)OCOP(=O)(O)O` [Compound 87, (S)-4-(3-(4-chloro-7-(2-((S)-1-(2-((3bS,4aR)-5,5-difluoro-3-(trifluoromethyl)-3b,4,4a,5-tetrahydro-1H-cyclopropa[3,4]cyclopenta[1,2-c]pyrazol-1-yl)acetamido)-2-(3,5-difluorophenyl)ethyl)-6-(3-methyl-3-(methylsulfonyl)but-1-yn-1-yl)pyridin-3-yl)-1-(2,2,2-trifluoroethyl)-1H-indazol-3-yl)-1-methyl-3-(methylsulfonyl)ureido)-5-oxo-5-((phosphonooxy)methoxy)pentanoic acid], for which, in data set [1], the “pH 2 solubility” value came out at 1 μM and the “pH 7 solubility” value came to 18 μM. The molecule further returned a solubility in data set [2] (setting [3]) of over 2480 µg/mL. For the same molecule, the solubility in data set [2] (setting [4]) is 299 µg/mL (≈ 236 µM).
